# Data from patent US7534769B2, “Compositions and methods for enhancing delivery of therapeutic agents to cells” (Canji, Inc., priority 1996, dated 2009).
# Entries after “also recorded” stand apart in the source; their conditions may differ.
# Tests used:
# [1] = Solubility and dissolution behaviour; format: physicochemical
# bladder [2] = experiment: Gene transfer activity of Syn3 in Big CHAP or Tween-80, β-galactosidase expression in bladder; format: in vivo, rat; settings: for gene transfer activity / β-gal expression: 0.5 mg/ml in 7.8 mM Big CHAP
# Method: (§1) Following removal of virus and flushing of the bladder, the animals were allowed to recover. After 48 hours the animals were sacrificed, their bladders fixed, and stained for β-gal expression. Following photographic recording, bladders were embedded in paraffin for sectioning and histological examination.
# bladder urothelium = experiment: Histological examination of Syn3 treated bladders (infiltrates); format: in vivo, rat; settings: for inflammation / infiltration at lower concentration of Syn3: 0.25 mg/ml compared with 0.5 mg/ml, decreasing concentrations in Big CHAP or Tween 80
# Method: as §1
# Bladders from animals treated with Syn3-rAd (β-Gal) were prepared for histological examination to determine the levels of viral infection, as well as the degree of viral penetration into the bladder urothelium.
# [3] = Stability of Syn3 in solution; format: physicochemical
# Method: However, if left at room temperature at this high concentration (100 mg/ml), it will solidify within 24 hours.
# bladder [4] = experiment: Gene transfer activity of water-soluble Syn3 analogs in vivo, whole organ Xgal staining; design: species or system rat; settings: summary, Concentration 1 mg/ml
# Method: A concentration of 1 mg/ml was chosen for initial testing of both compounds.
# The solution of A-TMA was prepared by dissoluting 10 mg of A-TMA into 10 ml Dulbecco's PBS. Glycerol was added to provide a final concentration of 10 mg/ml. All solutions were sterile filtered prior to use (0.2 μm Acrodisc syring filter). The virus (BGCG 70AAB) was diluted 1:10 into either this A-TMA solution, or into Dulbecco's PBS-glycerol prior to administration.
# Ten mg of A-HCl was dissoluted into this buffer and sterile filtered prior to use (0.2 μm Acrodisc suring filter). The virus (BGCG 70AAB) was diluted 1:10 into this solution prior to administration. For comparison, the virus diluted into this buffer without A-HCl was also tested.
# Female HSD rats were anesthetized using isofluorane. The rats were transuretherally catheterized into the bladder using PE50 tubing lubricated with K-Y jelly. A tie-off was installed on the external urethra to prevent back leakage. Urine, if any, was removed and the bladder was flushed with 0.5 ml PBS and emptied. rAd was diluted to the desired concentration (1:10) and instilled for 45 minutes. The dosing material was removed, noting the return volume. The bladder was flushed with 0.5 ml PBS and emptied. The tie-off and catheter were removed, and the animals were allowed to recover in cages.
# After 48 hours, the animals were sacrificed and their bladders inflation fixed with 0.5 ml fixative for 1 hour. The bladders were then rinsed overnight and whole organ Xgal staining was conducted.
# bladder epithelium [5] = format: in vivo, rat
# Method: Nine female buffalo rats (Harlan Sprague Dawley) were anesthetized with isoflurane and received a single intravesical administration of a human recombinant adenovirus encoding the lacZ gene (rAd-βgal). […] The administered material was retained in the bladder for 45 minutes. The bladder were then flushed with PBS, and the animals were permitted to recover from the procedure. Two days after administration, rats were sacrificed, bladders were harvested, fixed, and whole organs were stained with an Xgal (5-Bromo-4-chloro-3-indolyl-β-D-galactoside) solution to evaluate reporter gene transfer. Xgal-stained tissues were then paraffin embedded, sectioned, and counter stained with hematoxylin and eosin.
# After a 45 minute incubation, the bladders were flushed with PBS, and animals were permitted to recover from anesthesia.
# [6] = tested on: bladder, kidney and liver homogenates; experiment: ACNRB transgene expression by RT-PCR after intravesical administration; format: in vivo, mouse
# Method: After the virus was retained in the bladder for 45 minutes, the animals were permitted to recover and void. […] Following amplification (30 cycles) RT-PCR products were separated on a 10% polyacrylamide gel, stained with ethidium bromide, and photographed. […] Untreated samples and bladder samples without the reverse transcriptase (RT) provided controls for contaminating DNA.
# The instilled material was retained in the bladder for approximately 45 minutes, and animals were permitted to recover from the procedure. Mice were sacrificed 1, 2, 3, 4, 5, 6, 7, and 14 days after administration (N=4/time) for analysis. Bladders, livers, and kidneys were harvested and snap frozen in liquid nitrogen for subsequent analysis.
# After the virus was retained in the bladder for 45 minutes, the animals were permitted to recover. […] Transgene expression was determined using RT-PCR. Tissues were rinsed in RNAse free water, homogenized, digested in Tri-Reagent (Molecular Research Center), and total cellular RNA extracted. […] RT-PCR was performed in the Perkin Elmer 9600 GeneAmp PCR System. Cycling conditions were 10 min at 65° C., 8 min at 50° C., 5 min at 95° C. 32 cycles of PCR were performed, each cycle consisting of 30 sec at 94° C., 30 sec at 58° C., and 30 sec at 72° C. The 32nd cycle included a 10 min elongation step at 72° C. to ensure full extension of incomplete DNA fragments.
# bladder tissue = experiment: Cystitis evaluation of formulations in mice, bladder histopathology; settings: 80 μL intravesical, 7-day interval; 7 mM Big CHAP, 0.05 mM TRITON X-100 or 22% ethanol
# Method: The formulations were administered intravesically in a volume of 80 μL, and animals were observed over a 7-day interval. After sacrifice, bladders were paraffin-embedded, sectioned, and stained with hematoxylin and eosin for pathologic evaluation.
# bladder epithelium [7] = experiment: rAd-βgal gene transfer to bladder epithelium in detergent formulations, Xgal staining score and gross pathology; settings: detergents at their critical micellization concentration
# Method: rAd-βgal was formulated in different detergents at their critical micellization concentration to evaluate efficiency of gene transfer to the bladder epithelium. Female rats (about 200 g b/w, Harlan Sprague Dawley) were anesthetized with isoflurane and received a single intravesical administration of rAd-βgal (1×10^11 PN/ml) in different detergent formulations (see Table I). Before instillation, bladders were flushed with PBS and then emptied. rAd-βgal was then instilled in a volume of 0.5 ml. The instilled solution was retained in the bladder for 45 minutes. The bladders were then flushed with PBS, and the animals were permitted to recover from the procedure. 48 hours after administration, the rats were sacrificed, the bladders harvested, and fixed in formalin. After fixation, the bladders were opened longitudinally so that the urothelium was exposed to the chromogen (Xgal), that is converted to a blue color, if reporter gene (β-galactosidase) expression is present. The luminal epithelial surface of the whole bladder was photographed an blue staining scored: + (minimal staining), ++ (moderate staining), +++ intense staining covering the whole bladder epithelial surface.
# Briefly, in anaesthetized female rats rAd-βgal (1×10^11 PN/ml) was administered into the bladder via an intravesical catheter. rAd-βgal was formulated in different concentrations of Big CHAP (CALBIOCHEM®). A volume of 0.5 ml was injected and remained instilled in the bladder for 45 minutes. The animals were sacrificed 48 hours later, the bladder fixed in 4% formalin/glutaraldehyde, opened longitudinally, and the β-galactosidase enzyme activity measured using Xgal substrate. The intensity of blue staining correlates with the βgal-transgene expression.
# Effects of higher recombinant adenovirus concentrations were also tested. Briefly, in anaesthetized female rats different concentrations of rAd-βgal, formulated in 7 mM Big CHAP (CALBIOCHEM®) were administered into the bladder via an intravesical catheter. The animals were sacrificed 48 hours later, the bladder fixed in 4% formalin/glutaraldehyde, opened longitudinally, and Xgal stained.
molecule,measurement,setting,value
CC(CCC(=O)NCCCN(CCCNC(=O)C(O)C(O)C(OC1OC(CO)C(O)C(O)C1O)C(O)CO)C(=O)CCC(C)C1CCC2C3C(O)CC4CC(O)CCC4(C)C3CC(O)C12C)C1CCC2C3C(O)CC4CC(O)CCC4(C)C3CC(O)C12C (stereo not drawn) [Syn3],dissolution in Tween 80,[1]; 1 mg/ml in 0.1% Tween 80,clear solution; also recorded: readily solubilized
same,behaviour on dissolution in water,[1]; 1 mg/ml in water,appeared to form vesicles
same,behaviour on dissolution in water,[1]; 10 mg/ml in water,formed a gel
same,amount of Syn3 that dissolutes,[1]; into 15 mM Big CHAP,Up to 5 mg/ml
same,time to completely dissolute,[1]; into 10% Tween-80,several hours
same,gene transfer activity,bladder [2]; 0.25 mg/ml in 3.9 mM Big CHAP,Very high levels of gene transfer
same,gene transfer activity,"bladder [2]; 0.25 mg/ml in 3.9 mM Big CHAP, listed as I3A",high levels of gene transfer activity
same,gene transfer activity / β-gal expression,bladder [2],greatly enhance gene transfer and β-gal expression; also recorded: very high levels of gene transfer activity; also recorded: highest levels of β-galactosidase expression; also recorded: extremely high
same,gene transfer activity / β-gal expression,bladder [2]; listed as I3A,High levels of gene transfer
same,gene transfer activity,bladder [2]; 0.5 mg/ml in 0.05% Tween-80,more regions lacking β-galactosidase expression; also recorded: slightly reduced
same,gene transfer activity,bladder [2]; 1 mg/ml in 0.1% Tween 80,found to enhance gene transfer; also recorded: can enhance gene transfer; also recorded: very high levels of gene transfer; also recorded: consistently high levels of gene transfer; also recorded: effective in enhancing gene transfer; also recorded: Approximately equal levels of gene transfer
same,gene transfer activity,"bladder [2]; 1 mg/ml in 0.1% Tween 80, listed as I3A",very high levels of gene transfer; also recorded: High levels of β-galactosidase activity
same,gene transfer,bladder [2]; 1 mg/ml in 0.4% Tween-80,almost no gene transfer
same,"gene transfer, 0.5 mg/ml in 7.8 mM Big CHAP compared with 1 mg/ml in 0.1% Tween-80","bladder [2]; rat, in vivo",approximately equal levels of gene transfer enhancement; also recorded: comparable
same,inflammation / infiltration at lower concentration of Syn3,bladder urothelium,proportionally lower infiltration
same,inflammation / infiltration at lower concentration of Syn3,bladder urothelium; listed as I3A,less inflammation
same,recruitment of infiltrates to the bladder,bladder urothelium; 0.5 mg/ml in 7.8 mM Big CHAP with rAd,massive recruitment of infiltrates to the bladder
same,infiltration,bladder urothelium; Syn3 administered alone (no virus),a significant amount of infiltration; also recorded: significant induction of infiltrates
same,β-Gal expression on reducing the concentration of Syn3 (histology),bladder urothelium; in either detergent,concomitant reduction in β-Gal expression
same,period over which gene transfer activity is retained,"[3]; 0.25 mg/ml or 0.5 mg/ml in Big CHAP, room temperature",at least 30 days
same,period of stability,"[3]; 1 mg/ml in 0.1% Tween-80, longest period tested",at least 30 days
same,period of stability,"[3]; 100 mg/ml in 10% Tween-80, 4° C.",at least one week
same,time to solidify,"[3]; 100 mg/ml in 10% Tween-80, room temperature",≤ 24 h
same,stability (in words),[3]; dissoluted into Big CHAP detergent,very stable
same,gene transfer activity,bladder [4],++++
CCO [ethanol],β-galactosidase expression of the transitional bladder epithelium (histologic evaluation),bladder epithelium [5]; ethanol added to the adenovirus formulation,increased β-galactosidase expression
same,β-galactosidase expression in the luminal epithelial surface,"bladder epithelium [5]; rAd-βgal 1.7×10^11 PN/mL diluted in 30% (v/v) ethanol, intravesical 45 min, 2 days after administration",greatly enhanced
same,ACNRB expression in bladder (RT-PCR),"[6]; ACNRB 4×10^10 PN/mL in 22% (v/v) ethanol or 3 mM Big CHAP versus VPBS, 48 hours",enhanced expression
same,ACNRB expression in bladder (RT-PCR),"[6]; ACNRB in 30% (v/v) ethanol compared to VPBS, 2 days",Increased ACNRB expression
same,macrophage infiltration into the bladder tissue / cystitis,bladder tissue,significant cystitis
Triton X-100 [reference compound],gene transfer to the bladder epithelium (Table I),bladder epithelium [7],enhanced gene transfer dramatically
same,macrophage infiltration into the bladder tissue / cystitis,bladder tissue,slight to mild
